Values of other authors in patent US20120237456A1, “ORAL COMPOSITIONS CONTAINING EXTRACTS OF GARCINIA MANGOSTANA L. AND RELATED METHODS” (Colgate-Palmolive Company, priority 2009, published 2012).

Columns and labels:
cAMP phosphodiesterase = details: reported by Chairungsrilerd and Takeuchi et al., 1996
COX 1 = COX 1 (Homo sapiens, UniProt P23219); details: Nakatani et al., 2002 and 2004
DNA topoisomerase = details: Tosa et al., 1997
serotonin receptors = details: Chairungsrilerd, Furukawa et al., 1996 and 1998
[1] = compared with BHA and a-tocopherol (vitamin E); Yoshikawa et al., 1994; Fan and Su, 1997

Sequence of COX 1 (P23219 24-599): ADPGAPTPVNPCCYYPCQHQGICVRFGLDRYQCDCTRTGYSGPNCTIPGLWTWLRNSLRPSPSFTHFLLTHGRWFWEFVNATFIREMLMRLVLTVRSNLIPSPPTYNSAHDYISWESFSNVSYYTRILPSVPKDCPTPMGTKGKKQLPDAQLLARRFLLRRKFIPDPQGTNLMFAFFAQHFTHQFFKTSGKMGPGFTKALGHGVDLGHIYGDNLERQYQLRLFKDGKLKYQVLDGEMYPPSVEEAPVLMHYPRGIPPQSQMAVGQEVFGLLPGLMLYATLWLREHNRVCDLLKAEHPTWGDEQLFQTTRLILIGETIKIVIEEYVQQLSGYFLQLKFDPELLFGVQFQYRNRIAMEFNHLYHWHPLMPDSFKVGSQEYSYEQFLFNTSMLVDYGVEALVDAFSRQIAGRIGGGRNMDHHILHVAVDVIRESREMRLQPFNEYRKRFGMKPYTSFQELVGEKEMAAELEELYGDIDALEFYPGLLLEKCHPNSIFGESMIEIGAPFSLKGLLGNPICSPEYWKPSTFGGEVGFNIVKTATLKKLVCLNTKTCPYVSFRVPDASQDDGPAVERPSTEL

| inhibition of cAMP phosphodiesterase (cAMP phosphodiesterase) | Structure (SMILES) | inhibition of the activity of cyclooxygenase COX 1 (COX 1) | inhibition of DNA topoisomerase (DNA topoisomerase) | antagonism of serotonin receptors (serotonin receptors) | antioxidative activity [1] |
| --- | --- | --- | --- | --- | --- |
| strong inhibition | COc1c(O)cc2oc3cc4c(c(O)c3c(=O)c2c1CC=C(C)C)CC(O)C(C)(C)O4 (centres unmarked) [Mangostanol] |  |  |  |  |
|  | CC(C)=CCc1c(O)cc2oc3cc(O)c(O)c(CC=C(C)C)c3c(=O)c2c1O [γ-mangostin] | directly inhibit | inhibit | antagonist | more potent antioxidative activity than BHA |
